Biological target: Mitogen-activated protein kinase kinase kinase kinase 1 (Homo sapiens, UniProt Q92918)
Assay: HPK1 Kinase Activity Inhibition Assay
Method: 1. HPK1 Kinase Activity Inhibition Test. The kinase activity of HPK1 is manifested as activity of autophosphorylation and phosphorylation of downstream substrates. In the process of autophosphorylation, additional substrates are not required, and ATP is consumed to generate ADP. […] Transfer 2 μL of 2×[…] kinase solution to 384 reaction plate, add 1 μL of the test compound to the 384 reaction plate (Greiner, 784075), centrifuge for 1 minute (1000 rpm/min), incubate at 25° C. for 10 minutes. […] of the 4×ATP mixture to a 384 reaction plate, centrifuge for 1 minute (1000 rpm/mm), and incubate at 25° C. for 60 minutes. In the reaction system, the final concentration of DMSO was […]. Transfer 4 μL of ADP-Glo to a 384 reaction plate, centrifuge for 1 minute (1000 rpm/min), and incubate at 25° C. for 40 minutes. Transfer 8 μL detection solution to a 384 reaction plate, centrifuge for 1 minute (1000 rpm/min), and incubate at 25° C. for 40 minutes. The […] signal was read using a Biotek multi-function plate reader, and the […] (half inhibitory concentration) of the compound was obtained using a four-coefficient nonlinear fitting formula.

Mitogen-activated protein kinase kinase kinase kinase 1, sequence (Q92918 whole entry): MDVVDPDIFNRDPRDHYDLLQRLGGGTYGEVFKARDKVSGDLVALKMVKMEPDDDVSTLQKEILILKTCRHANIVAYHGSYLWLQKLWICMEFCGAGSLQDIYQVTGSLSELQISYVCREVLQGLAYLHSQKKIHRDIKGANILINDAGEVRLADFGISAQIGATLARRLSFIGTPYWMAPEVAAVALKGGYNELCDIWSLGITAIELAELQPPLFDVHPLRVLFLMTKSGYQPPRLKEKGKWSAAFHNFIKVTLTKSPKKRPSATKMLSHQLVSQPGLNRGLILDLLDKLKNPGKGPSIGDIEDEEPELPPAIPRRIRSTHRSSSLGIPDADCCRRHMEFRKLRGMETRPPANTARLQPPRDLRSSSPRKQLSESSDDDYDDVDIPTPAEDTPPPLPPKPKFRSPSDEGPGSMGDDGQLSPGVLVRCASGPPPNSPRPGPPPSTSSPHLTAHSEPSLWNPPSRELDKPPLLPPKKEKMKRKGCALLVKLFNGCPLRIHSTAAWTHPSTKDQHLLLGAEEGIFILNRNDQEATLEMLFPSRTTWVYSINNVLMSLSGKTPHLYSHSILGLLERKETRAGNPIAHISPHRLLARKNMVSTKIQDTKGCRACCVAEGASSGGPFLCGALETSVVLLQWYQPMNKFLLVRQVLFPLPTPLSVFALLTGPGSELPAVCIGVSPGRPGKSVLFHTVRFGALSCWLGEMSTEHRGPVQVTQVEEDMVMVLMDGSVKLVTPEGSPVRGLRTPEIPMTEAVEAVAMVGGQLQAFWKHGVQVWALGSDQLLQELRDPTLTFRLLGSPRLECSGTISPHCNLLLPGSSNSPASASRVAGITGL

IC50 [nM] | SMILES
< 50 | CCc1cccc(F)c1-n1nc2c(-c3ccc(N4CCN(CC(C)(C)O)CC4)cc3)n[nH]c2cc1=O [US20230322789, Compound 116]
< 50 | Cc1cccc(F)c1-n1nc2c(-c3ccc(N4CCN5C(=O)OCC5C4)nc3)n[nH]c2cc1=O (configuration not stated) [US20230322789, Compound 129]

— BindingDB's records for patent US20230322789 (Broadenbio, 2023)
